One data set is described as follows: solubility. It is filed as physicochemical.
The subject of another data set is gram positive organisms. In words: activity against gram positive organisms. The data set is classed as cell-based.
Data set [1] has as its system Acinetobacter calcoaceticus. Nature of the data set: MIC by agar dilution technique. To be noted: SC8333, SC No. 8333, 10^4 CFU, 37° C., 18 hours. The data set is classed as cell-based. As to the method:
(§1) The minimum inhibitory concentration (MIC) of aerocavin was determined by an agar dilution technique. The test organisms were prepared from frozen stocks and diluted to give a final level of 10^7 CFU/ml (CFU is colony forming units). Aerocavin was dissolved in the appropriate diluent at a concentration of 1,000 μg/ml. Two fold dilutions were made in Yeast Beef Broth (Difco), resulting in a range from 1,000 μg/ml to 0.5 μg/ml. A 1.5 ml sample of each dilution was placed into individual petri dishes to which 13.5 ml of K-10 agar* was added. The final drug concentration in the agar ranged from 100 μg/ml to 0.05 μg/ml. Organism growth control plates containing agar only were prepared and inoculated before and after the test plates. The organisms were applied to the surface of each plate with the Denley Multipoint Inoculator (which delivers approximately 0.001 ml of each organism) resulting in a final inoculum level of 10^4 CFU on the agar surface. |*K-10 agar The plates were incubated at 37° C. for 18 hours and the MIC's then determined. The MIC is the lowest concentration of compound inhibiting growth of the organism.

The subject of data set [2] is Staphylococcus epidermidis. Nature of the data set: MIC by agar dilution technique. The data set is classed as cell-based. To be noted: 37° C., 18 hours. Here is the method:
as §1

In a further data set the test system is Pseudomonas aeruginosa. In words: MIC by agar dilution technique. The data set is classed as cell-based. To be noted: 37° C., 18 hours. Here is the method: as §1, with “surface.” for “surface. |*K-10 agar The plates were incubated at 37° C. for 18 hours and the MIC's then determined. The MIC is the lowest concentration of compound inhibiting growth of the organism.”
(§2) The plates were incubated at 37° C. for 18 hours and the MIC's then determined. The MIC is the lowest concentration of compound inhibiting growth of the organism.
(§3) Using the methodology described for the determination of the biological activity of aerocavin, the biological activity of aerocyanidin was determined.
(In agar dilution, organisms are placed on agar that contains the substance at set levels.)

For the next data set, the system named is Escherichia coli. Nature of the data set: MIC by agar dilution technique. It is filed as cell-based. To be noted: 37° C., 18 hours. Here is the method: as §1, with “surface.” for “surface. |*K-10 agar The plates were incubated at 37° C. for 18 hours and the MIC's then determined. The MIC is the lowest concentration of compound inhibiting growth of the organism.”
as §2, §3

In a further data set the test system is Staphylococcus aureus. In words: MIC by agar dilution technique. It is filed as cell-based. To be noted: 37° C., 18 hours. Here is the method: as §1, with “surface.” for “surface. |*K-10 agar The plates were incubated at 37° C. for 18 hours and the MIC's then determined. The MIC is the lowest concentration of compound inhibiting growth of the organism.”
as §2, §3

The next data set is described as follows: stability on storage. It is filed as physicochemical. To be noted: solid state, compared with ethyl acetate solution at 4° C.
The subject of a further data set is Shigella sonnei. In words: MIC by agar dilution technique. It is filed as cell-based. To be noted: SC8449, SC No. 8449, 10^4 CFU, 37° C., 18 hours. Here is the method: as §1, with “surface.” for “surface. |*K-10 agar The plates were incubated at 37° C. for 18 hours and the MIC's then determined. The MIC is the lowest concentration of compound inhibiting growth of the organism.”
as §2, §3

The next data set concerns Streptococcus agalactiae. Nature of the data set: MIC by agar dilution technique. It is filed as cell-based. To be noted: SC9287, SC No. 9287, 10^4 CFU, 37° C., 18 hours. Here is the method:
as §1, with “surface.” for “surface. |*K-10 agar The plates were incubated at 37° C. for 18 hours and the MIC's then determined. The MIC is the lowest concentration of compound inhibiting growth of the organism.”
as §2, §3

For a further data set, the system named is Streptococcus faecalis. Nature of the data set: MIC by agar dilution technique. The data set is classed as cell-based. To be noted: Enterococcus faecalis, SC9011; SC No. 9011; 10^4 CFU, 37° C., 18 hours. As to the method:
as §1, with “surface.” for “surface. |*K-10 agar The plates were incubated at 37° C. for 18 hours and the MIC's then determined. The MIC is the lowest concentration of compound inhibiting growth of the organism.”
as §2, §3

The next data set relates to Klebsiella aerogenes. Nature of the data set: MIC by agar dilution technique. The data set is classed as cell-based. To be noted: SC10440, SC No. 10440, 10^4 CFU, 37° C., 18 hours. As to the method:
as §1, with “surface.” for “surface. |*K-10 agar The plates were incubated at 37° C. for 18 hours and the MIC's then determined. The MIC is the lowest concentration of compound inhibiting growth of the organism.”
as §2, §3

A further data set deals with Klebsiella pneumoniae. Nature of the data set: MIC by agar dilution technique. The data set is classed as cell-based. To be noted: SC9527, SC No. 9527, 10^4 CFU, 37° C., 18 hours. As to the method:
as §1, with “surface.” for “surface. |*K-10 agar The plates were incubated at 37° C. for 18 hours and the MIC's then determined. The MIC is the lowest concentration of compound inhibiting growth of the organism.”
as §2, §3

The next data set concerns Micrococcus luteus. In words: MIC by agar dilution technique. It is filed as cell-based. To be noted: SC2495, SC No. 2495, 10^4 CFU, 37° C., 18 hours. Here is the method:
as §1, with “surface.” for “surface. |*K-10 agar The plates were incubated at 37° C. for 18 hours and the MIC's then determined. The MIC is the lowest concentration of compound inhibiting growth of the organism.”
as §2, §3

The next data set deals with Salmonella typhosa. Nature of the data set: MIC by agar dilution technique. It is filed as cell-based. To be noted: Salmonella enterica, SC1195 / TYPHOSA, 18 h. As to the method:
as §1, with “surface.” for “surface. |*K-10 agar The plates were incubated at 37° C. for 18 hours and the MIC's then determined. The MIC is the lowest concentration of compound inhibiting growth of the organism.”
as §2, §3

In the next data set the test system is Enterobacter cloacae. Nature of the data set: MIC by agar dilution technique. It is filed as cell-based. To be noted: SC8236, SC No. 8236, 10^4 CFU, 37° C., 18 hours. As to the method:
as §1, with “surface.” for “surface. |*K-10 agar The plates were incubated at 37° C. for 18 hours and the MIC's then determined. The MIC is the lowest concentration of compound inhibiting growth of the organism.”
as §2, §3

For a further data set, the system named is Proteus mirabilis. In words: MIC by agar dilution technique. It is filed as cell-based. To be noted: SC3855, SC No. 3855, 10^4 CFU, 37° C., 18 hours. Here is the method:
as §1, with “surface.” for “surface. |*K-10 agar The plates were incubated at 37° C. for 18 hours and the MIC's then determined. The MIC is the lowest concentration of compound inhibiting growth of the organism.”
as §2, §3

≈ marks a conversion by molar mass, not a printed value.

With `CCCCCCCCC[C@@H](O)C[C@H]1C[C@H](O)C/C(C)=C/C/C=C/C/C(CC(=O)O)=C\C(=O)O1` (relative stereo) [aerocavin, [3E,6E,9E,12α,14β(R*)]-12-hydroxy-14-(2-hydroxyundecyl)-10-methyl-2-oxooxacyclotetradeca-3,6,9-triene-4-acetic acid], the solubility entry in the data set “solubility” (in heptane) is reported as “less soluble”; in the data set “solubility” (in methanol, acetone, ethyl acetate), “substantially soluble”; in “solubility” (in water), “insoluble”. Also, in the data set on gram positive organisms, the “activity against gram positive organisms” value is “has activity against gram positive organisms”. The minimum inhibitory concentration (MIC) in data set [1] was 12.5 µg/mL (≈ 26.9 µM); in data set [2] (SC9052, SC No. 9052, 10^4 CFU), 6.3 µg/mL (≈ 13.6 µM); in data set [2] (SC10547, SC No. 10547 (Penicillin^R), 10^4 CFU) it was 3.1 µg/mL (≈ 6.67 µM); against Pseudomonas aeruginosa (SC9545, SC No. 9545, 10^4 CFU), 25 µg/mL (≈ 53.8 µM); against Escherichia coli (SC8294, SC No. 8294, 10^4 CFU), 100 µg/mL (≈ 215 µM); with Escherichia coli (SC10857, SC No. 10857, 10^4 CFU), 12.5 µg/mL (≈ 26.9 µM). Further, the minimum inhibitory concentration (MIC) is 6.3 µg/mL (≈ 13.6 µM) against Staphylococcus aureus (SC1276, SC No. 1276, 10^4 CFU); 6.3 µg/mL (≈ 13.6 µM) in the data set on Staphylococcus aureus (SC2399, SC No. 2399, 10^4 CFU); 6.3 µg/mL (≈ 13.6 µM) against Staphylococcus aureus (SC9593, SC No. 9593 (Penicillin^R), 10^4 CFU); 3.1 µg/mL (≈ 6.67 µM) against Staphylococcus aureus (SC10016, SC No. 10016 (Tetracycline^R), 10^4 CFU); 3.1 µg/mL (≈ 6.67 µM) with Staphylococcus aureus (SC10820, SC No. 10820 (Erythromycin^R), 10^4 CFU).

As for `[C-]#[N+][C@]1(C)O[C@@H]1[C@H](O)CCCCCCCCCC(=O)O` (relative stereo) [aerocyanidin, [2α(R*),3α]-κ-hydroxy-3-isocyano-3-methyloxiraneundecanoic acid], in “stability on storage”, the stability result is recorded as “less stable in the solid state”. Moreover, the “activity against gram positive organisms” value in the data set on gram positive organisms is “has activity against gram positive organisms”. In addition, the MIC is greater than 50 µg/mL in the data set on Pseudomonas aeruginosa (SC8329, SC No. 8329, 10^4 CFU); 25 µg/mL (≈ 88.2 µM) in the data set with Shigella sonnei; less than 0.05 µg/mL in the data set on Streptococcus agalactiae; 0.2 µg/mL (≈ 0.706 µM) against Streptococcus faecalis; greater than 50 µg/mL in the data set with Klebsiella aerogenes; greater than 50 µg/mL with Escherichia coli (SC8294, SC No. 8294, 10^4 CFU). Moreover, the MIC against Escherichia coli (SC10896, SC No. 10896, 10^4 CFU) is 25 µg/mL (≈ 88.2 µM); in the data set on Escherichia coli (SC10909, SC No. 10909, 10^4 CFU), 1.6 µg/mL (≈ 5.65 µM); in the data set on Klebsiella pneumoniae it was greater than 50 µg/mL; against Staphylococcus aureus (SC1276, SC No. 1276, 10^4 CFU) it was less than 0.05 µg/mL; against Staphylococcus aureus (SC2399, SC No. 2399, 10^4 CFU), less than 0.05 µg/mL; with Staphylococcus aureus (SC2400, SC No. 2400, 10^4 CFU), less than 0.05 µg/mL. For the same compound, the MIC against Micrococcus luteus is 0.4 µg/mL (≈ 1.41 µM); in the data set with Salmonella typhosa it was 25 µg/mL (≈ 88.2 µM); in the data set on Enterobacter cloacae, 50 µg/mL (≈ 176 µM); against Proteus mirabilis it was 1.6 µg/mL (≈ 5.65 µM).

For orientation: MIC means the lowest concentration found to suppress growth.

The record behind these values is patent US4745202A, “Aerocyanidin-antibiotic” (E. R. Squibb & Sons, Inc., priority 1987, dated 1988).
